Measurements published in publication PMC9388626, “STUB1 is an intracellular checkpoint for interferon gamma sensing” (Scientific Reports, 2022).
Peptide text beside a SMILES is read from it.

Key:
STUB1 (aa25–aa153) [1] = molecular target: T1, STUB1 (aa25–aa153) (Homo sapiens, UniProt Q9UNE7); assay: Isothermal titration calorimetry; type: binding; settings: ITC
T1 sequence (Q9UNE7 25-153): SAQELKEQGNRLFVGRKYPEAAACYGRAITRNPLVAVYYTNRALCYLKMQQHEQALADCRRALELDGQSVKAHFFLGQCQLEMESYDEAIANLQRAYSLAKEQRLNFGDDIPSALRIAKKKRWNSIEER
Method: Recombinant STUB1 protein, spanning aa25-aa153, was produced by Nanyang Technological University protein production platform. The purity and identity of the protein was confirmed by mass spectrometry and SDS-PAGE. Synthetic peptides, in a form of N-acetylation and free C-terminal carboxylic acid, were custom made by Chinese Peptide Company (CPC). The purity and identity of the peptides were confirmed by analytic HPLC (≥ 95% purity) and mass spectrometry. Peptides are dissolved in neat DMSO as 10 mM stock solution and diluted thereof for subsequent experiments.
Recombinant STUB1 protein (aa25-aa153) was dialyzed overnight with Slide-A-Lyzer cassette (7 K MWCO, Thermo Scientific, #66373) in 1 L of dialysis buffer (PBS, pH 7.4, 0.5 mM TCEP). The dialyzed protein solution was centrifuged at 15,000 rpm for 10 min at 4 °C to remove potential precipiates. The protein was diluted to 20 µM using the dialysis buffer, followed by the additon of DMSO spike-in (2% final concentration). The synthetic peptides (10 mM in DMSO) were diluted to 200 µM with the dialysis buffer (2% final DMSO concentration). ITC measurements were performed at 25 °C using a Microcal PEAQ-ITC (Malvern Panalytical Inc). An initial injection of 0.4 µl followed by a total of 39 injections of peptide solution (1 µl, 200 µM) were added at an intervals of 2 min into the protein solution (20 µM) while stirring at 750 rpm. The data point produced by the first injection was discarded prior to curve fitting in order to account for the diffusion effect during the equilibration process. The experimental data were fitted to a non-interacting one-site binding model using the analysis software supplied by Microcal, with ΔH (enthalpy change), Ka (association constant) and N (number of binding sites per monomer) as adjustable parameters. Free energy change (ΔG) and entropy contributions (TΔS) were determined from the standard equation: ΔG = ΔH − TΔS = − RT lnKa, where T is the absolute temperature and R = 1.987 cal mol^−1 K^−1.

STUB1 (aa25-aa153) = assay: Thermal shift assay (SYPRO Orange); type: binding; settings: 100 µM peptide, 10 µM protein, relative to DMSO vehicle, mean ± s.d. from three independent experiments
Description: The SYPRO Orange fluorescent dye (Invitrogen) was used to measure the thermal stability of recombinant STUB1 protein (aa25-aa153). With increasing temperature, binding of the dye molecule to the hydrophobic region of the denatured STUB1 results in an increase in the fluorescence intensity. The midpoint of this transition is termed the Tm. Binding of a ligand, such as peptide, stabilizes the protein and results in a melting temperature shift (ΔTm), which correlates with the binding affinity of the ligand. The thermal shift assay was conducted in a CFX96 real-time PCR detection system (Bio-Rad). A total of 50 µl mixture containing 3.125 × SYPRO Orange (Invitrogen, diluted from 5000 × DMSO stock), 100 µM peptide of interest, and 10 µM protein was prepared in a PCR 8-well strip tube. The samples were heated from 25 to 95 °C in 0.5 °C increment each cycle. The holding time for each cycle is 5 s, after which the fluorescence intensity was measured in Channel 2 (HEX) with Ex/Em: 515–535/560–580 nm. Each independent experiment was performed in technical duplicates.

STUB1 [2] = assay: Co-immunoprecipitation of FLAG-mCherry2-peptide and STUB1; type: binding, murine; settings: spiked into co-IP mixture, room temperature, 4 h
Method: B16-F10 cells stably expressing the biologic were harvested, rinsed with PBS, and lysed with chilled cell lysis buffer (Cell Signaling Technology, #9803) supplemented with Halt protease inhibitor cocktail (Life Technologies, #78430) and phosphatase inhibitor (Sigma-Aldrich, # 4906837001). Cellular lysates were clarified by centrifugation at 15,000 rpm at 4 °C for 15 min. Protein concentration was determined using BCA protein assay kit (Pierce, #23225). For each sample of the co-immunoprecipitation (co-IP), 20 µl of anti-FLAG magnetic beads (Sigma-Aldrich, M8823) was rinsed twice with 0.2 ml PBS, followed by addition of 500 µl diluted cellular lysate (60 µg, 0.12 µg µl^−1). For competitive inhibition, synthetic peptide (SIWWPD) was added into the co-IP mixture. The resulting mixture was rotated at room temperature for 4 h, after which the beads were rinsed with 3 × 0.5 ml PBS to remove the unbound proteins. Bound protein complexes were directly eluted with a 20 µl solution of LDS sample buffer (Life Technologies, NP0008) supplemented with sample reducing agent (Life Technologies, NP0009), followed by heating at 70 °C for 10 min. […] Blotting was similar to the Western Blot section described above. Primary antibodies used were: STUB1/CHIP (Cell Signaling Technology, #2080, 1:1000 dilution), FLAG (Sigma-Aldrich, F1804, 1:1000 dilution). […]

STUB1 [3] = system: STUB1; design: method as in PMID 31320752; settings: cited from earlier work
STUB1 (aa25–aa153) [4] = molecular target: T1, STUB1 (aa25–aa153); assay: Competitive fluorescence polarization assay; type: binding; settings: 15 nM 5-FAM-[…] tracer, 1 µM STUB1, PBS pH 7.4, 0.01% Tween 20, room temperature, 30 min; mean ± s.e., six replicates from two independent experiments
Method: The assays were performed at room temperature using assay buffer (PBS, pH 7.4, 0.01% v/v Tween 20) and black 384-well non-binding polystyrene microplate (Greiner Bio-one, #784900). The peptide of interest was first diluted (10-point, threefold serial dilution) with the assay buffer on the microplate to have a volume of 10 µl in each well. This was followed by the addition of 10 µl mixture containing 5-FAM-[…]-CO2H (30 nM) and the recombinant STUB1 protein (2 µM). The final assay solution (20 µl) contains 5-FAM-labeled tracer peptide (15 nM), protein (1 µM) and peptide of interest (5 nM to 100 µM). After 30 min incubation in the dark, the microplate was read with TECAN Infinite M1000 PRO (Ex: 470 nm, Em: 520 nm, bandwidth: 5 nm, G-factor = 1.05, gain: optimal, #flashes = 10, settle time = 0 ms, z position: calculated from well). Value of polarization (mP) = 1000 × (G × intensity‖ − intensity ⊥ )/(G × intensity‖ + intensity ⊥ ). Half maximal inhibitory concentration (IC50) was determined by fitting the curve using 4-parameter sigmoidal function in GraphPad Prism. Each independent experiment was performed in technical triplicates.

[5] = molecular target: T2, Recombinant STUB1 protein, spanning aa25-aa153 (UniProt Q9UNE7 25-153); assay: FP
T2 chain: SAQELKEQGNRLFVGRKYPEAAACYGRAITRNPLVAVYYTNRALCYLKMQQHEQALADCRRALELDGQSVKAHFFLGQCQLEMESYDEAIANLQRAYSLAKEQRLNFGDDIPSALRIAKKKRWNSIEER

[6] = molecular target: T2, Recombinant STUB1 protein, spanning …; assay: ITC
[7] = molecular target: T3, Recombinant STUB1 protein, spanning aa25-aa153 (UniProt Q9UNE7 25-153); assay: ITC; peptide (200 µM) injected into STUB1 aa25-aa153 (20 µM); 25 °C; PBS pH 7.4, 0.5 mM TCEP, 2% DMSO; one-site binding model; settings: both partners purified
T3 construct: STUB1 (E3 ligase, also STUB1/CHIP), residues 25-153; also called STUB1 (aa25–aa153); CHIP; source: recombinant, produced by Nanyang Technological University protein production platform; purity and identity confirmed by mass spectrometry and SDS-PAGE
T3 sequence (looked up): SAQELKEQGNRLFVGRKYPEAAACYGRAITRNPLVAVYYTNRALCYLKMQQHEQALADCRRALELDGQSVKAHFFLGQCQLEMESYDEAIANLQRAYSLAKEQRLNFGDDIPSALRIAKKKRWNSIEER

[8] = molecular target: T3, Recombinant STUB1 protein, spanning …; assay: thermal shift assay; SYPRO Orange; 100 µM peptide, 10 µM STUB1 aa25-aa153; heated from 25 to 95 °C in 0.5 °C increments; settings: both partners purified
[9] = molecular target: T3, Recombinant STUB1 protein, spanning …; assay: fluorescence polarisation; competitive; 15 nM tracer 5-FAM-…, 1 µM STUB1 aa25-aa153, peptide of interest 5 nM to 100 µM; room temperature; PBS pH 7.4, 0.01% v/v Tween 20; 30 min incubation; settings: both partners purified

## CC[C@H](C)[C@H](NC(=O)[C@H](CO)NC(C)=O)C(=O)N[C@@H](Cc1c[nH]c2ccccc12)C(=O)N[C@@H](Cc1c[nH]c2ccccc12)C(=O)N1CCC[C@H]1C(=O)N[C@@H](CC(=O)O)C(=O)O [SIWWPD, reference compound] (Ac-SIWWPD-OH)
STUB1 (aa25–aa153) [1]
  Binding to STUB1: bound strongly to the protein
STUB1 (aa25-aa153)
  ΔTm: 18.3 ± 0.1 °C
STUB1 [2]
  Reversal of co-immunoprecipitation by synthetic peptide: completely reversible in a dose-dependent manner
STUB1 [3]
  Blocking of STUB1 interaction with HSPA8: capable of blocking the interaction of STUB1 with HSPA8

## CC[C@H](C)[C@H](NC(=O)[C@H](CO)NC(C)=O)C(=O)N[C@@H](Cc1c[nH]c2ccccc12)C(=O)N[C@@H](Cc1c[nH]c2ccccc12)C(=O)N[C@@H](Cc1c[nH]cn1)C(=O)N[C@@H](CCCNC(=N)N)C(=O)O [SIWWHR] (Ac-SIWWHR-OH)
STUB1 (aa25–aa153) [1]
  Binding to STUB1: non-binding
STUB1 (aa25–aa153) [1]; PBS pH 7.4, 0.5 mM TCEP, 2% DMSO, 25 °C, 200 µM peptide into 20 µM protein
  Kd: > 10000 nM
STUB1 (aa25-aa153)
  ΔTm: -0.1 ± 0.2 °C
STUB1 (aa25–aa153) [4]
  IC50: > 100000 nM

B1: TIEEVD (peptide)
chain: Ac-TIEEVD-OH
[5]
  IC50: 2700 nM
[6]
  Kd: 2190 nM

B2: synthetic inhibitory peptide SIWWPD (peptide)
peptide: Ac-SIWWPD-OH
notes: source: synthetic peptide, custom made by Chinese Peptide Company (CPC)
[7]
  Kd: 14 ± 2 nM
[8]
  ΔTm: 18.3 °C
[9]
  IC50: 340 nM
